Assay results as given in US20150038435A1, “N-TERMINALLY MODIFIED OLIGOPEPTIDES AND USES THEREOF” (Novo Nordisk A/S, priority 2012, published 2015).
Starred links: 1 amine or outer side, 2 acyl side, 3 side chain; linkers in the order of their positions; H or OH if unused. Non-standard residues stand in square brackets, D forms with d. *: point of attachment. γGlu = O=C(O)[C@H](CCC(=O)[*:2])N[*:1]; C14 diacid = O=C(O)CCCCCCCCCCCCC(=O)*; Lauroyl = CCCCCCCCCCCC(=O)*

Tests used:
Chymotrypsin = assay: Inhibition of enzymatic degradation of a model GLP-1 (FRET substrate) by chymotrypsin; type: biochemical; settings: for EC50: read-out: EC50 Chymotrypsin (0.001 mg/ml), 0.001 mg/ml chymotrypsin, 37° C., ± standard error if at least 3 measurements
Summary of the method: (§1)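 MCA/DNP-labelled model GLP-1 FRET substrate (10 μl of 100 μM stock) in Dulbecco's PBS at 37° C with varying acylated peptide; fluorescence (ex 320/em 405 nm) read every minute for ≥30 min. Initial slopes from linear regression, duplicates averaged; EC50 by sigmoidal logistic fit of slope vs concentration.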

Trypsin = assay: Inhibition of enzymatic degradation of a model GLP-1 (FRET substrate) by trypsin; type: biochemical; settings: for EC50: read-out: EC50 Trypsin (0.001 mg/ml), 0.001 mg/ml trypsin, 37° C.
Summary of the method: as §1

[1] = Hydrophobicity: retention time during reverse phase HPLC; type: physicochemical; settings: Acquity CSH C18; pH 7.2 buffer/CH3CN gradient; 40° C.
From the text: The retention time (RT) during reverse phase HPLC was taken as a measure of hydrophobicity of an N-terminally modified peptide or oligopeptide of the invention, where the connection is: The longer the RT, the more hydrophobic N-terminally modified peptide or oligopeptide. The following running conditions were applied during HPLC analysis:
Buffer B: 70% (v/v) aq. CH3CN

[2] = compound 0.1 mM, buffer containing 8% DMSO

RT (retention time during reverse phase HPLC as a measure of hydrophobicity) [1] [min]	EC50 (Chymotrypsin) [µM]	EC50 (Trypsin) [µM]	Substance	Slope of the initial increase in fluorescence obtained during incubation with 0.001 mg/ml Chymotrypsin (Chymotrypsin; [2])	Slope of the initial increase in fluorescence obtained during incubation with 0.001 mg/ml Trypsin (Trypsin; [2])	Slope of the initial increase in fluorescence obtained during incubation with 0.001 mg/ml Chymotrypsin (Chymotrypsin; compound 1 mM)	Slope of the initial increase in fluorescence obtained during incubation with 0.001 mg/ml Trypsin (Trypsin; compound 1 mM)
7			N-dodecanoyl-Val-Pro-Tyr-OH [Example 111]	0.31	1.93		
3.95			N-dodecanoyl-γGlu-OEG-Ala-Ala-Pro-Phe-OH [Example 125]			0.75	0.38
3.62			N-dodecanoyl-γGlu-OEG-OEG-Arg-OH [Example 132]			0.35	0.26
3.62			N-dodecanoyl-γGlu-OEG-OEG-DArg-OH [Example 133]			0.27	0.09
3.67			N-dodecanoyl-γGlu-OEG-Pro-Arg-OH [Example 127]			0.62	0.72
7	48	46	N-hexadecanoyl-γGlu-OEG-Ala-Ala-Pro-Phe-OH [Example 134]				
8.73	106	13	N-tetradecanoyl-βAla-βAla-Pro-Phe-OH [Example 136]				
8.16	154	39	N-tetradecanoyl-βAla-βAla-βAla-Pro-Phe-OH [Example 138]				
5.02	102	> 500	N-tetradecanoyl-γGlu-OEG-Ala-Ala-Pro-Phe-OH [Example 126]			0.05	0.30

The remaining lines, values behind:

Substance	RT (retention time during reverse phase HPLC as a measure of hydrophobicity) [1] [min]	EC50 (Chymotrypsin) [µM]	EC50 (Trypsin) [µM]	Slope of the initial increase in fluorescence obtained during incubation with 0.001 mg/ml Chymotrypsin (Chymotrypsin; [2])	Slope of the initial increase in fluorescence obtained during incubation with 0.001 mg/ml Trypsin (Trypsin; [2])	Slope of the initial increase in fluorescence obtained during incubation with 0.001 mg/ml Chymotrypsin (Chymotrypsin; compound 1 mM)	Slope of the initial increase in fluorescence obtained during incubation with 0.001 mg/ml Trypsin (Trypsin; compound 1 mM)
N-dodecanoyl-Ser-Ala-Pro-Tyr-OH (Lauroyl-SAPY-OH; SMILES CCCCCCCCCCCC(=O)N[C@@H](CO)C(=O)N[C@@H](C)C(=O)N1CCC[C@H]1C(=O)N[C@@H](Cc1ccc(O)cc1)C(=O)O) [Example 51]	5.2			0.41	1.66		
N-dodecanoyl-Ser-Pro-Tyr-OH [Example 107]	5.58			0.89	1.99		
N-dodecanoyl-Thr-Ala-Ala-Pro-Tyr-OH [Example 52]	5.47			0.01	1.68		
N-dodecanoyl-Thr-Ala-Pro-Tyr-OH (Lauroyl-TAPY-OH; SMILES CCCCCCCCCCCC(=O)N[C@H](C(=O)N[C@@H](C)C(=O)N1CCC[C@H]1C(=O)N[C@@H](Cc1ccc(O)cc1)C(=O)O)[C@@H](C)O) [Example 53]	5.52			0.16	1.80		
N-dodecanoyl-Thr-Pro-Tyr-OH [Example 108]	5.72			0.59	1.92		
N-dodecanoyl-Trp-Pro-Tyr-OH [Example 109]	8.24			0.05	0.73		
N-dodecanoyl-Tyr-Pro-Tyr-OH [Example 110]	6.24			0.35	1.77		
N-dodecanoyl-Val-Ala-Ala-Pro-Tyr-OH [Example 54]	7.08			0.95	1.95		
N-dodecanoyl-Val-Ala-Pro-Tyr-OH (Lauroyl-VAPY-OH; SMILES CCCCCCCCCCCC(=O)N[C@H](C(=O)N[C@@H](C)C(=O)N1CCC[C@H]1C(=O)N[C@@H](Cc1ccc(O)cc1)C(=O)O)C(C)C) [Example 55]	7.01			0.42	1.88		
N-dodecanoyl-βAla-Ala-Pro-Phe-OH [Example 8]	6.13					0.03	0.70
N-dodecanoyl-βAla-βAla-Pro-Phe-OH [Example 10]	6.04					0.05	3.29
N-dodecanoyl-γGlu-Ala-Ala-Pro-Phe-OH [Example 12]	4.04					0.76	0.30
N-dodecanoyl-γGlu-Ala-Ala-Pro-Tyr-OH [Example 97]	3.79			0.55	1.31		
N-dodecanoyl-γGlu-Ala-Pro-Tyr-OH (Lauroyl-[γGlu]APY-OH; SMILES CCCCCCCCCCCC(=O)N[C@@H](CCC(=O)N[C@@H](C)C(=O)N1CCC[C@H]1C(=O)N[C@@H](Cc1ccc(O)cc1)C(=O)O)C(=O)O) [Example 98]	3.79			1.39	1.53		
N-dodecanoyl-γGlu-Pro-Tyr-OH [Example 100]	3.9			1.75	1.69		
N-dodecanoyl-γGlu-γGlu-Ala-Ala-Pro-Tyr-OH [Example 99]	3.41			0.35	1.52		
N-tetradecandioyl-Ala-Ala-Pro-Phe-OH ({C14 diacid}-AAPF-OH) [Example 16]	3.11					0.14	3.23
N-tetradecanoyl-Ala-Ala-Pro-DPhe-OH [Example 5]	9.74	105				0.09	0.35
N-tetradecanoyl-Ala-Ala-Pro-Phe-OH [Example 3]	9.74	57 ± 2	74			0.01	0.37
N-tetradecanoyl-βAla-Ala-Pro-Phe-OH [Example 9]	8.73					0.01	0.21
